The text below walks through data of ChEMBL document CHEMBL4680376, “Discovery of Orally Active and Nonsteroidal Farnesoid X Receptor (FXR) Antagonist with Propensity for Accumulation and Responsiveness in Ileum” (ACS Med Chem Lett, 2021).

pIC50: −log10 of the molar value.

One data set has as its system Huh-7. Briefly: Cytotoxicity against human HuH-7 cells by MTT assay.
Data set [1] in a line: Metabolic stability in mouse liver microsomes assessed as compound remaining at 1 ug/ml incubated for 30 mins by LC-MS/MS analysis. To be noted: at 1 µg/mL.
The target of data set [2] is T1, Bile acid receptor (Homo sapiens, UniProt Q96RI1).
T1 sequence (Q96RI1 whole entry): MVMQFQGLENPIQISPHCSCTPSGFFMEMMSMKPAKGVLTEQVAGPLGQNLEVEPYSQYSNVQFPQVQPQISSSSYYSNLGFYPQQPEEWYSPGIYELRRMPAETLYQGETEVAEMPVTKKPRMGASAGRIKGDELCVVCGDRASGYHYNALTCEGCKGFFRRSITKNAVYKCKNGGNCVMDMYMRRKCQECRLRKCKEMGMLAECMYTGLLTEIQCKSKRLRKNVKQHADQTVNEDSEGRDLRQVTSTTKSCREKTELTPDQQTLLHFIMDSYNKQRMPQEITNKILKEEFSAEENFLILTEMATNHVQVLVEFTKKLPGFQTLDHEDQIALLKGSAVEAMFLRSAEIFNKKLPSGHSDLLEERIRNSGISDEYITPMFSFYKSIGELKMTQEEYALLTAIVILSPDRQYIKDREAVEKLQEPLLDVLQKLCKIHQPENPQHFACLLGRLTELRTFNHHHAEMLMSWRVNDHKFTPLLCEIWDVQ
Briefly: Antagonist activity against recombinant human FXR transfected in human HuH-7 cells co-transfected with FRE-luciferase assessed as reduction in CDCA-induced luciferase expression incubated for 24 hrs by luciferase reporter gene assay.

Data set [3] in a line: Metabolic stability in rat liver microsomes assessed as compound remaining at 1 ug/ml incubated for 30 mins by LC-MS/MS analysis. To be noted: at 1 µg/mL.
Data set [4] can be described thus: in vivo. To be noted: Sprague-Dawley, rat, po, 30 mg/kg.
A short description of data set [5]: in vivo. Particulars: Sprague-Dawley, rat, po, 30 mg/kg. This is another data set of the same source.
Data set [6] can be described thus: in vivo. To be noted: Sprague-Dawley, rat, po, 30 mg/kg. This is another data set of the same source.
Data set [7] has as its target T1, Bile acid receptor. Briefly: Antagonist activity at recombinant GST-tagged FXR LBD (unknown origin) assessed as inhibition of GW4064-induced Fluorecein-SRC2-2 coactivator peptide recruitment by LanthaScreen TR-FRET co-regulator assay.
A short description of data set [8]: Plasma concentration in Sprague-Dawley rat at 30 mg/kg, po measured after 6 hrs by LC-MS/MS analysis.
For data set [9] the following is noted: rat, in vivo, iv, 1 mg/kg, 6 h.
The nature of data set [10]: in vivo. To be noted: Sprague-Dawley, rat, po, 30 mg/kg. This is another data set of the same source.

`Cc1ccc2nc([C@H](CC3CCN(C(=O)C(C)C)CC3)N3C(=O)CN(c4ccc(Oc5ccc(F)cc5)cc4)C3=O)n(C)c2c1`: in the data set with Huh-7, the pIC50 was less than 4.00. Moreover, the share remaining at 0.5 h, 1 ug/ml in data set [1] was 10.6%.

For the compound `COc1ccc(Oc2ccc(N3CC(=O)N([C@@H](CC4CCN(C(=O)C(C)C)CC4)c4nc5ccc(C)cc5n4C)C3=O)cc2)cc1`, the pIC50 with Huh-7 is less than 4.00; on Bile acid receptor [2], more than 12.00. Besides, the figures for the amount remaining at 0.5 h, 1 ug/ml in data set [1] and in data set [3] were 2.4% and 12.1%, respectively. Further, the Tmax at 6 h in the data set “in vivo [4]” is 2 h. In addition, the Cmax at 6 h in “in vivo [5]” turned out to be 483 ng/mL. Also, the bioavailability at 6 h in the data set “in vivo [6]” amounted to 18%.

Regarding `CC(C)C(=O)N1CCC(C[C@@H](c2nc3ccccc3n2C2CC2)N2C(=O)CN(c3ccc(Oc4ccc(F)cc4)cc3)C2=O)CC1`, the values for the negative-log IC50 (pIC50) in the data set with Huh-7, at Bile acid receptor [7] and at Bile acid receptor [2] were less than 4.00, 6.85 and 8.74, respectively. In addition, the fraction remaining at 0.5 h, 1 ug/ml in [1] came to 29.4%.

In the data set with Huh-7, `CC(C)C(=O)N1CCC(C[C@@H](c2nc3ccc(F)cc3n2C2CC2)N2C(=O)CN(c3ccc(Oc4ccc(F)cc4)cc3)C2=O)CC1` gave a negative-log IC50 (pIC50) of less than 4.00. The results for the fraction remaining at 0.5 h, 1 ug/ml in data set [1] and in data set [3] were 54% and 84.4%, respectively. In data set [8], this compound gave a concentration at 6 h of 2480 ng/mL. This compound returned an AUC in data set [9] of 937 ng·h/mL. In “in vivo [10]”, this compound gave an AUC(0-t) at 6 h of 15600 ng·h/mL. In addition, in the data set “in vivo [4]”, the Tmax at 6 h was 3 h. In addition, in “in vivo [5]”, the highest level (Cmax at 6 h) was 2850 ng/mL. The compound also had a bioavailability at 6 h in the data set “in vivo [6]” of 55.4%.
